Source: PMC6471485, “Selective Inhibitors of a Human Prolyl Hydroxylase (OGFOD1) Involved in Ribosomal Decoding” (Chemistry (Weinheim an Der Bergstrasse, Germany), 2019)

Assays:
PHD2 = biological target: T1, PHD2 (Homo sapiens, UniProt Q9GZT9); assay: 2OG displacement from PHD2 by CPMG-edited 1H NMR; assay type: binding; conditions: 10 µM 2OG, 10 µM PHD2, 70 µM inhibitor
T1 construct: 181-426 or OGFOD1
Method: (§1) total echo time of 40 ms, a relaxation delay of 2 s, with 256 scans. Water suppression was achieved by presaturation. Samples contained 30 µM apo-PHD2181-426 or OGFOD1, supplemented with 60 µM Zn(II), 30 µM of inhibitor, all in 50 mM Tris-d11, pH 7.5, 10 % D2O, […]
wLOGSY Binding Experiments: For water-ligand observed gradient spectroscopy (wLOGSY) analyses, typical experimental parameters were the following: mixing time, 1 s; relaxation delay, 2 s; number of transients, 512. Solvent excitation was achieved using a 16-ms 180° selective rectangular shape pulse with 1,000 points (Squa100.1000) set at the H2O frequency. […]
Competition Experiments by 2OG Displacement: 2OG displacement assays[12] were performed using CPMG-edited 1H spectra. […] The 2OG methylene resonance at 2.35 ppm was monitored. […]
HeLa cells were cultured in DMEM media supplemented with 10 % fetal bovine serum, 4 mM L-glutamine, 100 U/mL penicillin, and 100 µg/mL streptomycin. […] Cell extracts were analyzed by SDS-PAGE, electroblotted onto PVDF membranes (Millipore) and probed with anti-HIF-1α antibody (clone 54, BD Transduction Laboratories) at 1:1000 dilution for 1 h at room temperature. […] Target proteins were detected with SuperSignal Chemiluminescent […]
Figure S15. Single-concentration qualitative 2OG displacement as monitored by CPMG-edited 1H NMR spectroscopy. […]

OGFOD1 = biological target: T2, OGFOD1 (Homo sapiens, UniProt Q8N543); assay: wLOGSY NMR binding experiment with OGFOD1; conditions: 120 µM inhibitor, 15 µM OGFOD1
T2 sequence (Q8N543 1-542): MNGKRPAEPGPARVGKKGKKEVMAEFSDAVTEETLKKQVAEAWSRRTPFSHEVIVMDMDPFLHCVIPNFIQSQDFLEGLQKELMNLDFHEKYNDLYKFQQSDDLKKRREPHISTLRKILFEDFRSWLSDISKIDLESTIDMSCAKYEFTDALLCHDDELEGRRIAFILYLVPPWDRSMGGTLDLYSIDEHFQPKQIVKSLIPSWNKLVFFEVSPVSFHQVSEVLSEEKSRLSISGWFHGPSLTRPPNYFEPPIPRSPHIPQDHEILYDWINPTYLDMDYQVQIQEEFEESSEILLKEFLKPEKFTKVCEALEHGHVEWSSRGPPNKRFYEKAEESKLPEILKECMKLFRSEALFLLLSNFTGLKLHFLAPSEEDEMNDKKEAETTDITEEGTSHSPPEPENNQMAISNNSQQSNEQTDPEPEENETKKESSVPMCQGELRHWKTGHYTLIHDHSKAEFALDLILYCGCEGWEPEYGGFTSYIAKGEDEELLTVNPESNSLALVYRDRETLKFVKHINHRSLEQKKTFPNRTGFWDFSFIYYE
Method: as §1
wLOGSY Binding Experiments: For water-ligand observed gradient spectroscopy (wLOGSY) analyses, typical experimental parameters were the following: mixing time, 1 s; relaxation delay, 2 s; number of transients, 512. Solvent excitation was achieved using a 16-ms 180° selective rectangular shape pulse with 1,000 points (Squa100.1000) set at the H2O frequency.
Water suppression was achieved by a 2-ms sinc pulse (Sinc1.1000) at the H2O frequency.
Samples contained 5-fold molar excess inhibitor:protein as detailed in the figure legends; all analyses were in 50 mM Tris-d11, pH 7.5, 10 % D2O, 90 % H2O supplemented with 60 µM […]
Competition Experiments by 2OG Displacement: 2OG displacement assays[12] were performed using CPMG-edited 1H spectra. The PROJECT-CPMG sequence was applied as described by Aguilar et al.[11] The standard experimental parameters used were a total echo time of 40 ms, a relaxation delay of 2 s, with 160 scans. Water suppression was achieved by presaturation. The 2OG methylene resonance at 2.35 ppm was monitored. The percentage 2OG displacement was […]
% 2OG displacement = !2OG%!2OG(0) ×100 […]

T1 sequence (Q9GZT9 181-426 limits assumed): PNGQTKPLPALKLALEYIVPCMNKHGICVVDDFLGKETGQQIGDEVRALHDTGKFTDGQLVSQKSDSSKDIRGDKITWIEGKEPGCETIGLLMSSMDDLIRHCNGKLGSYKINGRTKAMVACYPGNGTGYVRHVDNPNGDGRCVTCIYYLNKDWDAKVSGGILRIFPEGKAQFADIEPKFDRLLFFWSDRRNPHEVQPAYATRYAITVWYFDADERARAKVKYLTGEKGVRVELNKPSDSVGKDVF

SMILES	displacement of bound 2OG from PHD2, in words (PHD2)	binding to OGFOD1 by wLOGSY NMR, in words (OGFOD1)
Cn1c(O)c(C(=O)CCc2ccccc2)c(=O)n(C)c1=O [compound 26]	not from that of PHD2	indicates a binding interaction
Cn1c(O)c(C(=O)CCc2cccs2)c(=O)n(C)c1=O [compound 42]	not from that of PHD2	indicates a binding interaction
